Data taken from patent publication US20220073874A1, “METHODS FOR ENHANCING DIRECT REPROGRAMMING OF CELLS” (UNIVERSITY OF SOUTHERN CALIFORNIA, priority 2020, published 2022).

How the values were obtained:
[1] = test system: mouse embryonic fibroblasts (MEFs); assay: viable cells by FSC and SSC profile via FACS; details: 6FDDRR, 4 dpi (FIG. 9L)
[2] = test system: mouse embryonic fibroblasts (MEFs); assay: EU incorporation (transcription rate) by flow cytometry; format: cell-based; details: Control-Pure and 6FDDRR cells, 4 dpi (FIG. 2L)
[3] = test system: mouse embryonic fibroblasts (MEFs); assay: EdU incorporation (DNA synthesis, S phase) by flow cytometry
[4] = test system: mouse embryonic fibroblasts (MEFs); format: cell-based; details: 6FDD condition, 14 dpi (FIG. 9G)
[5] = test system: mouse embryonic fibroblasts (MEFs); assay: biotinylated-trimethylpsoralen (bTMP) immunofluorescence, negative DNA supercoiling; format: cell-based; details: 100 μM for 15 minutes (FIG. 12A-B)
Description: Biotinylated-trimethylpsoralen (bTMP) Immunofluorescence. One day after addition of N3 media (and without addition of glial cultures), cells were treated with 1 μM aphidicolin for 1.5-2 hours in N3 media. For control experiments, MEFs were treated with or without 100 μM bleomycin prior to incubation with psoralen. Then cells were incubated with 0.3 mg/mL EZ-Link Psoralen-PEG3-Biotin (Thermo Cat. No: 29986) for 15 minutes. Cultures were then exposed to 3 kJ m-2 of […] light (Fotodyne UV Transilluminator 3-3000 with 15W bulbs) for 15 minutes at room temperature in the dark followed by 3 washes in PBS. Then cells were fixed with cold 70% ethanol for 30 minutes at 4° C. followed by another 3 washes in PBS. Cells were then incubated with Alexa Fluor 594 Streptavidin (Thermo Cat. No: 532356) for one hour at room temperature in the dark, washed with PBS 3 times, and then stained with Hoescht (1:1000) for 10 minutes at room temperature in the dark. Coverslips were mounted onto glass slides using lmmuMount and imaged using the Zeiss LSM 800 confocal microscope.

## C[C@@]1(CO)[C@H](O)CC[C@@]2(C)[C@H]1CC[C@H]1C[C@@H]3C[C@@]12CC[C@]3(O)CO [Aphidicolin, aphidicolin]
[1]
  cell count (total viable cells): only slightly reducing
[2]
  transcription rates: increased
[3]; EdU incorporation at 4 dpi, 1 μM for 18 hours, 6FDDRR (FIG. 9J-K)
  percent of cells in S phase: dramatically reduced
[3]; uninfected MEFs, 10 μM for 2 hr (FIG. 12N)
  EdU incorporation: did not incorporate EdU

## CO[C@@]12[C@H](COC(N)=O)C3=C(C(=O)C(C)=C(N)C3=O)N1C[C@@H]1N[C@@H]12 [mitomycin C]
[4]
  iMN conversion: impaired

## bleomycin
[5]
  biotinylated TMP intercalation: decreased
